Assay results: ChEMBL document CHEMBL3507680, “University of Dundee, Gates Library screen for HepG2 cell viability”

Assay: Human HepG2 cell viability assay in 384 well format
Format: toxicity, cell-based
Set-up: dose 125 nL, time 70.5 hour; concentration not given beside the values
Details: HepG2 cells, read-out: Inhibition

Compound	cytotoxicity at 70.5 h [%]
CCc1cnc(CNC(=O)NCCc2ccc(O)cc2)s1	-1.61
CCc1cnc(CNC(=O)NCCCO)s1	-3.22
O=C(C1CCOC1)N1CCN(CC2CC2)c2ccccc21 (configuration not stated)	-6.39
CCc1c(C(=O)Nc2ccc(F)c(C(=O)NC)c2)cnn1CC(C)C	0.0762
Cc1ncccc1C(=O)Nc1cccc(Cn2ccccc2=O)c1	-7.74
Cc1cc(C)nc(NC2CCN(CCOC(C)C)CC2)n1	1.5
O=C(C1CCOC1)N1CCN(CC(F)(F)F)c2ccccc21 (configuration not stated)	-5.62
COCCS(=O)(=O)NCc1ccc(N(C)C)c(C)c1	-7.82
CC(O)CN1CCN(Cc2coc(-c3ccccc3Cl)n2)CC1 (configuration not stated)	-4.11
NC(=O)C1Cc2ccccc2CN1CCC(=O)N1CCc2ccccc21 (configuration not stated)	-6.41
O=C(Cc1ccc2c(c1)CCC2)NC1CCN(Cc2ccccc2)CC1	30.6
CC(C)(C)c1noc(CCCC(=O)N2CCNC(=O)C2)n1	-16.6
CCCNC(=O)CNC(=O)CC1CCCc2cc(OC)ccc21 (configuration not stated)	-6.62
CN(CC(=O)Nc1ccccc1)C(=O)CN(C)c1ccc(Cl)cn1	-10.4
CN(c1ccc(CNC(=O)c2c[nH]c(=O)c(Cl)c2)cc1)C1CCCCC1	5.49
O=C(O)c1cnc2c(cnn2C2CCCC2)c1	-0.534
Cc1oc(NC(=O)C(C)N2CCN(C(C)(C)CO)CC2)c(C#N)c1C (configuration not stated)	-4.43
CCn1cc(S(=O)(=O)NCC(OC)c2ccccc2)cn1 (configuration not stated)	-3.94
CC(C)(C)OC(=O)Cn1nc(C2CC2)cc(C(F)(F)F)c1=O	-2.4
Cc1ccc(NC(=O)CN(C)C(=O)c2ccc(-n3cccc3)nc2)nc1	-1.66
CC(C)NC(=O)CN1CCC2(CC1)OCCO2	-2.05
COC(=O)CCN(CC1CCOC1)C1CC1 (configuration not stated)	0.428
CCc1noc(CS(=O)(=O)C(C)c2nc(C3CC3)no2)n1 (configuration not stated)	13.9
CN(C(=O)c1ccc(Cl)c(S(C)(=O)=O)c1)c1ccccc1	0.806

Compound	cytotoxicity at 70.5 h [%]
Cc1ccnc(C(NC(=O)c2sc(C)nc2C)C2CC2)n1 (configuration not stated)	-2.09
Cc1ccnc(C(NC(=O)c2ncoc2C)C2CC2)n1 (configuration not stated)	16.5
COc1ccc(N(C)C(=O)c2cccc(S(C)(=O)=O)c2)cn1	-3.33
CCOc1ccccc1NC(=O)CN(C)Cc1ccccc1Cl	-0.249
CCN(CC)CC1CCN(Cc2ncc(C(C)(C)C)o2)CC1	1.11
COC(=O)C1CN(Cc2nc(-c3ccccc3)cs2)C[C@@H](C)O1 (some centres not stated)	3.89
CCN(CCS(=O)(=O)c1ccc(Cl)cc1)Cc1ccc(OC)c(OC)c1	-12.9
CCCn1cc(NC(=O)c2ccc(S(=O)(=O)CC)cc2)ccc1=O	22.4
CN(Cc1cccc(C(N)=O)c1)c1ncc(C#N)cc1Cl	-9.21
Cn1cc(NC(=O)N2CCN(Cc3cscn3)CC2)ccc1=O	-9.04
CCN(C1CCN(Cc2ncc(C(C)(C)C)o2)CC1)S(C)(=O)=O	-7.94
COC(=O)c1sc2cccc(F)c2c1CNC(=O)C1CC1	1.14
O=C(NC1CCN(c2ncccn2)CC1)c1sccc1C1CC1	-5.49
CN(Cc1cccc(C(N)=O)c1)c1ncc(C(N)=O)cc1Cl	-9.7
CCOc1cncc(N2CCN(c3ccccc3F)CC2)n1	6.24
COc1cc2c(cc1CNC(=O)Cc1cc(C)[nH]n1)OC(C)C2 (configuration not stated)	3.19
Cc1cc(NCc2csc(-c3ccsc3)n2)no1	0.878
CCc1nc2c(s1)C(N(C)C(=O)c1csnn1)CCC2 (configuration not stated)	-5.63
CCCn1cc(NC(=O)c2ccc(S(C)(=O)=O)cc2)ccc1=O	-1.34
CCc1nc(C(=O)N(C)CC(=O)N(C)C)nn1-c1ccccc1Cl	27.7
CC(C)c1noc(CCCC(=O)Nc2cccc(F)c2)n1	15.5
Cc1nnc(NC(=O)NCc2ccc(N3CCNC(=O)C3)cc2)s1	-3.76
CC(O)CNCc1c[nH]nc1-c1cc2ccccc2o1 (configuration not stated)	17.5
CC(C)(C)OC(=O)NCCNC(=O)c1ccc2cc[nH]c2c1	0.498

Compound	cytotoxicity at 70.5 h [%]
CC(=O)c1cccc(NC(=O)NCCCc2nc(C(C)C)no2)c1	-1.88
Cc1nc(N2CCC(CC(=O)N3CCCC3)CC2)c2cnn(C)c2n1	-3.28
CC1CCC(NC(=O)CNC2(c3cccc(Br)c3)CCOCC2)CC1 (configuration not stated)	9.26
Cc1nn(C)c(N2CCCN(C)CC2)c1CNC(=O)C(C)(C)C	-0.257
CCOC(=O)c1cnn(C2CCN(C(=O)CCC(C)C)CC2)c1N	0.0774
CN(C(=O)COc1ccc(-c2noc(C3CCCO3)n2)cc1)C1CC1 (configuration not stated)	0.982
CC(Nc1cccc2c1OCCO2)C(=O)Nc1cccc(C#N)c1 (configuration not stated)	3.49
CC(C)(C)S(=O)(=O)CCNC(=O)c1ccc2cc[nH]c2c1	-0.00861
CCn1nc(C)cc1C(=O)NCc1cc(N(C)C)nc2ccccc12	9.21
COC(=O)N1CCC(Nc2ccc(C#N)c(Cl)c2)C1 (configuration not stated)	1.68
CCOCCC1(CNC(=O)c2ccc(C)nc2)CCCC1	0.601
CCc1nc(C(=O)N(CC)CC(=O)Nc2cc(Cl)ccc2C)c[nH]1	-4.72
Cn1cc(CC2CC(=O)N(Cc3ccc(Cl)cc3)C2=O)cn1 (configuration not stated)	24.4
CCOCCC1(CNC(=O)c2ccncc2Cl)CCC1	-2.65
COc1cccc(NC(=O)CCCc2nc(C(C)C)no2)c1	5.69
Cc1nn(C)c(Cl)c1C1CCCN1CC(=O)N1CCCCC1 (configuration not stated)	26.9
CCCn1cc(NC2CCSCC2)cn1	2.92
COc1ccc(CNCC2CN(C3CC3)CCO2)cc1C (configuration not stated)	-4.72
Cc1c(C(=O)NC2=NCCS2)cnn1-c1ccc(Cl)cc1	-3.08
O=C(Nc1nncs1)N1CCC(CCc2ccc(O)cc2)CC1	-14.7
CN(CC(O)COc1ccc(C(F)(F)F)cc1)C(=O)Nc1nncs1 (configuration not stated)	19.7
O=C(Nc1nncs1)N1CCC(c2ccc(O)cc2)CC1	-4.31
CC(=O)Nc1nc(CS(=O)(=O)Cc2ccccc2)cs1	20.1
NC(=O)C1CCN(CCc2ccc(NCc3cccnc3)cc2)CC1	4.26

Compound	cytotoxicity at 70.5 h [%]
CN1CCN(C(=O)C2CCCN2c2ncnc3ccsc23)CC1 (configuration not stated)	-11.8
CCC(C#N)NC(=O)COC1CCCCC1 (configuration not stated)	-13.3
CN1CC(NC(=O)CCCc2cc(Cl)sc2Cl)CCC1=O (configuration not stated)	-6.53
O=C(CCNS(=O)(=O)c1cccnc1)N1CCOC(c2ccccc2)C1 (configuration not stated)	-13.3
CCN(C(c1cccnc1)c1ccc2c(c1)CCC2)S(C)(=O)=O (configuration not stated)	3.11
CC/C=C(/C)C(=O)N1CSCC1C(=O)N(C)CCc1ccncc1 (configuration not stated)	-4.98
CC(NCCN1CCN(C(=O)C2CCCC2)CC1)c1nccs1 (configuration not stated)	7.3
Cc1cccc(-c2noc(CN3CCc4c(ncn4C4CC4)C3)n2)c1	-13.2
NC(c1ccc(F)cc1)c1cccs1 (configuration not stated)	6.42
CCCN(C)C(=O)c1cc(Br)cc(S(=O)(=O)N2CCOCC2)c1F	6.3
Cc1cc(Cl)ccc1NCc1cnn(C2CCS(=O)(=O)C2)c1 (configuration not stated)	5.78
COc1ccc(CNC(=O)NCc2ccc(C)cc2)cn1	-7.46
COc1ccc(CNC(=O)NCc2ccc(C(N)=O)cc2)cn1	-2.22
Cc1ncc(CN(C)C(=O)Nc2ccc(CN3CCOC3=O)cc2)s1	-7.05
NC(=O)C1CCN(C(=O)CCCc2ccc(Cl)c(Cl)c2)CC1	-6.88
Cc1ncc(CN(C)C(=O)Nc2cccc(C(=O)N3CCOCC3)c2)s1	-2.6
Cn1c(=O)oc2ccc(NC(=O)N3CCc4ccccc4C3)cc21	2.84
O=C(NS(=O)(=O)c1ccc(C2CCCCC2)cc1)C1COCCO1 (configuration not stated)	-4.85
CCn1cc(NC(=O)NC(CO)Cc2c[nH]c3ccccc23)cn1 (configuration not stated)	-4.69
CC(C)C1CCCN1C(=O)c1ccc(-n2ncc(C#N)c2N)cc1 (configuration not stated)	-5.76
COc1ccc(CNC(=O)NCc2nc(C)c(C)s2)cn1	-5.21
CCOc1cc(CNC(=O)NCc2nc(C)c(C)s2)ccn1	-5.57
Cn1ncnc1CCNC(=O)c1cc(Cl)c(Cl)n1C	-2.76
O=S1(=O)CCC(n2cc(CNCC3(c4ccccc4)CC3)cn2)C1 (configuration not stated)	30.7

Compound	cytotoxicity at 70.5 h [%]
Cc1cc(Cl)cc(C)c1CNC1CCN(CC(=O)N(C)C)CC1	-2.67
CCN(Cc1ccoc1)C(=O)NC1CCN(CC2CCCC2)CC1	-6.01
CCN(Cc1ccoc1)C(=O)NC1CCN(CC=C(C)C)CC1	6.72
Cn1c(SCC(O)COCc2ccc(Cl)cc2)nnc1C1CC1 (configuration not stated)	-3.52
CCn1cc(S(=O)(=O)NC(CO)Cc2c[nH]c3ccccc23)cn1 (configuration not stated)	-7.79
Cn1c(SCC(O)COCc2ccccc2Cl)nnc1C1CC1 (configuration not stated)	-8.57
Cc1noc(CCCC(=O)N2CCCCC2c2nccs2)n1 (configuration not stated)	32
O=S(=O)(NC(CO)Cc1c[nH]c2ccccc12)c1cncc(F)c1 (configuration not stated)	-4.62
CC(C)(C)c1ncc(CNc2ccn(CCc3ccncc3)n2)s1	-10.2
Cc1cc(N2CCOCC2)ccc1NC(C)c1nc(C(C)C)no1 (configuration not stated)	-0.714
Cc1noc(C(C)Nc2ccc(N3CCOCC3)cc2C)n1 (configuration not stated)	-4.53
c1ccc2nc(N3CCCC3c3nnc4n3CCCCC4)cnc2c1 (configuration not stated)	0.321
Cc1cc(NC(=O)C(C)Nc2cccc(COCc3ccco3)c2)no1 (configuration not stated)	-13.8
Cc1cc(N2CCCC2c2nnc3n2CCCCC3)nc(C)n1 (configuration not stated)	-3.38
Cc1ccc(NS(=O)(=O)c2cnn(-c3ccccc3)c2)c(C(=O)O)c1	-5.8
CC(C)c1noc(CN(CCC2CCCCC2)CC(N)=O)n1	-3.41
COCCN(C(=O)c1ccn(-c2ccc(OC)cc2)n1)C(C)C(N)=O (configuration not stated)	20.6
CCSc1ccc(C(=O)N2CCCCC2C(=O)N2CCCC2)cn1 (configuration not stated)	-0.733
Clc1cncc(N2CCCC2c2nnc3n2CCCCC3)n1 (configuration not stated)	-17.1
NC(c1ccc(Cl)cc1)c1cccs1 (configuration not stated)	9.24
CCOC(=O)c1cnn(C2CCN(C(=O)CC(C)(C)C)CC2)c1N	4.77
